According to PubChem BioAssay (NCI):
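Exposure lasted 48 hours, with cells grown in 96-well plates and compounds tested at five concentrations. TGI: total growth inhibition.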

What was measured:
Test in all cases: NCI tumour cell line growth inhibition, 48 h
[1] = test system: HCC-2998 colon
[2] = test system: SN12C renal
[3] = test system: U251 CNS
[4] = test system: SK-MEL-28 melanoma
[5] = test system: SK-OV-3 ovarian
[6] = test system: DMS 273 small cell lung
[7] = test system: UO-31 renal
[8] = test system: K-562 leukemia
[9] = test system: HCT-15 colon
[10] = test system: OVCAR-8 ovarian
[11] = test system: SW-620 colon
[12] = test system: LOX IMVI melanoma
[13] = test system: CAKI-1 renal
[14] = test system: HL-60(TB) leukemia
[15] = test system: P388/ADR leukemia
[16] = test system: NCI-H522 lung
[17] = test system: SF-539 CNS
[18] = test system: HOP-62 NSCLC
[19] = test system: SNB-75 CNS
[20] = test system: SF-295 CNS
[21] = test system: HOP-92 NSCLC
[22] = test system: 786-0 renal
[23] = test system: NCI-H460 lung
[24] = test system: MALME-3M melanoma
[25] = test system: SK-MEL-2 melanoma
[26] = test system: KM12 colon
[27] = test system: UACC-62 melanoma
[28] = test system: COLO 205 colon
[29] = test system: MOLT-4 leukemia
[30] = test system: HOP-18 NSCLC
[31] = test system: SK-MEL-5 melanoma
[32] = test system: KM20L2 colon
[33] = test system: XF 498 CNS
[34] = test system: A549 NSCLC
[35] = test system: RPMI-8226 leukemia
[36] = test system: RXF 393 renal
[37] = test system: SF-268 CNS
[38] = test system: OVCAR-3 ovarian
[39] = test system: SR leukemia
[40] = test system: M14 melanoma
[41] = test system: IGROV1 ovarian
[42] = test system: HCT-116 colon
[43] = test system: HT29 colon
[44] = test system: M19-MEL melanoma
[45] = test system: NCI-H226 lung
[46] = test system: A498 renal
[47] = test system: SN12K1 renal
[48] = test system: UACC-257 melanoma
[49] = test system: TK-10 renal
[50] = test system: CCRF-CEM leukemia
[51] = test system: P388 leukemia
[52] = test system: DMS 114 small cell lung
[53] = test system: OVCAR-4 ovarian
[54] = test system: OVCAR-5 ovarian
[55] = test system: SNB-19 CNS
[56] = test system: SNB-78 CNS
[57] = test system: EKVX NSCLC
[58] = test system: LXFL 529 NSCLC
[59] = test system: DLD-1 colon
[60] = test system: NCI-H23 lung
[61] = test system: ACHN renal
[62] = test system: MCF7 breast
[63] = test system: NCI/ADR-RES ovarian

O=C(O)/C=C/C(=O)N1C/C(=C\c2ccccc2)C(=O)/C(=C/c2ccccc2)C1
TGI [1]: 13.1 µM | TGI [2]: 15.5 µM | TGI [3]: 3.79 µM | TGI [4]: 15.9 µM | TGI [5]: 42.7 µM | TGI [6]: 20 µM | TGI [7]: 24.9 µM | TGI [8]: 7.86 µM | TGI [9]: 20.6 µM | TGI [10]: 11.7 µM | TGI [11]: 6.09 µM | TGI [12]: 10.5 µM | TGI [13]: 31.1 µM | TGI [14]: 26.6 µM | TGI [15]: > 70.7 µM | TGI [16]: 4.94 µM | TGI [17]: 26.7 µM | TGI [18]: 41.7 µM | TGI [19]: 20.6 µM | TGI [20]: 11.8 µM | TGI [21]: 37.9 µM | TGI [22]: 10.6 µM | TGI [23]: 30.8 µM | TGI [24]: 12.3 µM | TGI [25]: 17.2 µM | TGI [26]: 6.07 µM | TGI [27]: 8.7 µM | TGI [28]: 24.3 µM | TGI [29]: 9.26 µM | TGI [30]: 26.3 µM | TGI [31]: 19 µM | TGI [32]: 17.6 µM | TGI [33]: 15.8 µM | TGI [34]: 52 µM | TGI [35]: 6.22 µM | TGI [36]: 17.5 µM | TGI [37]: 16.8 µM | TGI [38]: 15.6 µM | TGI [39]: 41.6 µM | TGI [40]: 11.9 µM | TGI [41]: 31.9 µM | TGI [42]: 3.48 µM | TGI [43]: 21.1 µM | TGI [44]: 9.41 µM | TGI [45]: 31.3 µM | TGI [46]: 34.5 µM | TGI [47]: 3.57 µM | TGI [48]: 15.8 µM | TGI [49]: 22.8 µM | TGI [50]: 7.18 µM | TGI [51]: 41.6 µM | TGI [52]: 8.78 µM | TGI [53]: 16.4 µM | TGI [54]: 31.8 µM | TGI [55]: 23.6 µM | TGI [56]: 24.2 µM | TGI [57]: 44.3 µM | TGI [58]: 3.72 µM | TGI [59]: 12.2 µM | TGI [60]: 23.9 µM | TGI [61]: 20.9 µM | TGI [62]: 18.3 µM | TGI [63]: 61.7 µM
